Test results as given in patent publication US11993640B2, “Treating inflammatory lung disease” (United States Government as represented by the Department …, priority 2019, dated 2024).
Non-standard residues stand in square brackets, D forms with d. Residues, ends and D or L forms follow the SMILES beside them. *: point of attachment. Phenylacetyl(2,3,4,5,6-F5) = O=C(Cc1c(F)c(F)c(F)c(F)c1F)*; Phe(F5) = N[C@@H](Cc1c(F)c(F)c(F)c(F)c1F)C(=O)O; hArg = N=C(N)NCCCC[C@H](N)C(=O)O; 12Ado = NCCCCCCCCCCCC(=O)O; Nle = CCCC[C@H](N)C(=O)O; Orn = NCCC[C@H](N)C(=O)O; Abu = CC[C@H](N)C(=O)O; PhAc = O=C(Cc1ccccc1)*

Key:
rat pituitary cells = test: Inhibition of GHRH(1-29)NH2-stimulated GH release from rat pituitary cells (ELISA); type: cell-based; conditions: analog 20 nM
Method: In vitro assessment of the antagonistic activity of GHRH analogs. Rats were decapitated and pituitaries were collected in pre-warmed HBSS (Hanks' Balanced Salt Solution). Tissue was then cut into small pieces and digested in HBSS medium containing 3% BSA, 50 μg/ml gentamycin and 0.5% collagenase for 50 minutes at 37° C. Cells were further dispersed by pipetting and passed through a 100 μm cell strainer with the addition of DMEM containing 50 μg/ml gentamycin, 10% horse serum and 2.5% FBS (growth medium). Cells were harvested at 475×g for 2 minutes, resuspended in fresh growth medium and seeded onto poly-D-lysine-coated 24-well plates (7 pituitaries/plate). Cells were left to recover for 4 days. Growth medium was then replaced with serum-free DMEM for 4 hours and GHRH analogs (at concentration of 20 nM) were added in DMEM containing 0.1% BSA for 30 minutes. Cells were replenished with medium containing the same concentration of the analogs and 1 nM GHRH(1-29)NH2 for 30 minutes. Medium from this step was collected, centrifuged at 800 g for 3 minutes and GH concentration was determined by ELISA (ALPCO Diagnostics, Mill Valley, CA) according to the manufacturer's instruction.

HT-29 xenograft = test: Xenograft tumor growth in nude mice, colon cancer HT-29; type: in vivo; conditions: Panel G, 6 weeks, 5 μg/day s.c.
Method: (§1) The peptides' activity was compared with GHRH antagonist MIA-602. All statistical analyzses were performed from comparing GHRA antagonists to non-treated tumor (control).
(§2) Peptides and chemicals. GHRH antagonists MIA-602 and AVR-GHRH antagonists (see Table 2 above) were synthesized by solid phase methods and purified by HPLC. The peptides were dissolved in DMSO and further diluted in 10% 1, 2-propanediol. The final concentration of peptides was 50 µg/ml in 10% 1, 2-propanediol containing 0.1% of DMSO.
(§3) Cell culture. Human cancer cell lines including pancreatic (PANC-1 and CFPAC-1), lung (HCC827 and H460), stomach (NCI-N87), prostate (PC3), brest (MX-1 and HCC-1806), colorectal (HT-29), and ovarian (SK-OV-3 and OVCAR-3) were obtained from the American Type Culture Collection (ATCC) and cultured at 37° C. in a humidified 95% air/5% CO2 atmosphere in the medium recommended by ATCC.
(§4) Xenograft models of human cancers in nude mice. Female athymic (NCr nu/nu) nude mice, 5-to 6-weeks-old, obtained from the Envigo labs (Tampa, FL), were housed in laminar airflow cabinets under pathogen-free conditions with a 12-h light/12-h dark schedule, and were fed autoclaved standard chow and water. To generate mice with xenografted tumors, tumor xenografts were initiated by subcutaneous (s.c.) injection of […] human cancer cells into female nude mice. After about 4 weeks the resulting tumors were dissected and collected after removing necrosis tissues. The tumors were then cut into particles with size of ˜3 mm3 and transplanted s.c. by trocar needle into experimental animals. When tumors grew to the size of 50-60 mm3 (by volume), mice were randomized into groups and treated daily for 4-8 weeks by subcutaneous administration of 5 μg of GHRH antagonists MIA-602 or AVR-compounds (2-10 μg as indicated), or vehicle solutions (0.1% DMSO in 10% 1, 2-propanediol) respectively. Tumor sizes were measured weekly.
Statistical analysis. One-way ANOVA followed by Bonferroni comparison were performed. Data are expressed as Mean±SEM. To determine statistical significance between animal groups, two-tailed Student's t-test was conducted. Differences were considered significant when p<0.05.
Results. […] FIG. 1A-N represents in vivo inhibition of tumor growth during the treatment with GHRH antagonist MIA-602 and selected AVR antagonists in nude mice xenografted with various human tumors including pancreatic cancer PANC-1 (FIG. 1A) and CFPAC-1 (FIG. 1I); lung cancer HCC827 (FIGS. 1B, C) and H460 (FIG. 1H); stomach cancer N87 (FIGS. 1D-F); colon cancer HT-29 (FIG. 1G); breast cancer MX-1 and HCC-1806 (FIGS. 1J, K); ovarian cancer SK-OV-3 and OVACAR-3 (FIGS. 1L, M) and prostate cancer PC3 (FIG. 1N). See also Table 5.

OVCAR-3 xenograft = test: Xenograft tumor growth in nude mice, ovarian cancer OVCAR-3; type: in vivo; conditions: Panel M, 9 weeks, 5 μg/day s.c.
Method: as §1, §2, §3, §4
Statistical analysis. One-way ANOVA followed by Bonferroni comparison were performed. Data are expressed as Mean±SEM. […]

[1] = tested on: mouse lung fibroblasts (Mlg 2908); test: RNAseq of cultured lung fibroblasts; type: cell-based; conditions: 1 and 5 μM, normal fibroblasts not exposed to bleomycin
Method: Lung fibroblasts. Newborn mouse lung fibroblasts (Mlg 2908) were obtained from the American Type Culture Collection, Manassas, VA and cultured in Eagle's minimal essential medium. Cells were grown in 6-well plates before incubation with 1 or 5 μM MIA-602 or vehicle, RNA isolation, and oxygen consumption measurements.
RNA was extracted from cultured fibroblasts using a Direct-zol RNA MicroPrep kit (R2060; Zymo Research, Irvine, CA). Cells were washed with PBS and lysed in TRIreagent™, then purified using Direct-zol RNA columns. DNase I treatment was done in columns and RNA eluted in DNase/Rnase-free water.
RNAseq and Pathway analyses. At least 10 ng of total RNA was used as input for the KAPA RNA HyperPrep Kit with RiboErase (HMR) to create ribosomal RNA-depleted sequencing libraries, including sample indexing, to allow for multiplexing. Cluster generation and sequencing was done on the Illumina cBOT and HiSeq 3000 using reagents provided by Illumina, finally generating >32 million single-end 100 base reads per sample.
De-multiplexed FASTQ files were created with Illumina supplied scripts in BCL2FASTQ software (v2.17). […]
Gene counts were normalized using trimmed mean of M-values (TMM) method. Differential expression between groups was calculated with the exact test implemented in edgeR (Robinson M, McCarthy D, Smyth G (2010). Bioinformatics 26:139-140). […]

Compound | Inhibitory effect on the release of GH compared with MIA-602 (rat pituitary cells) | Tumor Growth % (HT-29 xenograft) [%] | Tumor Growth % (OVCAR-3 xenograft) [%] | Fibroblast gene expression [1]
CCCC[C@H](NC(=O)[C@@H](NC(=O)[C@H](CC(=O)O)NC(=O)[C@H](CCC(N)=O)NC(=O)[C@H](CC(C)C)NC(=O)[C@H](CC(C)C)NC(=O)[C@H](CCCCN)NC(=O)[C@H](CCCNC(=N)N)NC(=O)[C@H](C)NC(=O)[C@H](CO)NC(=O)[C@H](CC(C)C)NC(=O)[C@H](CCC(N)=O)NC(=O)[C@H](CC)NC(=O)[C@H](CC(C)C)NC(=O)[C@@H](NC(=O)[C@H](CCCCN)NC(=O)[C@H](CCCNC(=N)N)NC(=O)[C@H](Cc1ccc(OC)cc1)NC(=O)[C@H](CCCCNC(=N)N)NC(=O)[C@H](C)NC(=O)[C@@H](NC(=O)[C@H](Cc1c(F)c(F)c(F)c(F)c1F)NC(=O)[C@@H](NC(=O)[C@H](C)NC(=O)[C@H](CC(=O)O)NC(=O)[C@@H](CCCNC(=N)N)NC(=O)[C@H](Cc1ccc(O)cc1)NC(=O)CCCCCCCCCCCNC(=O)Cc1c(F)c(F)c(F)c(F)c1F)[C@@H](C)CC)[C@@H](C)O)C(C)C)[C@@H](C)CC)C(=O)N[C@H](CCCNC(=N)N)C(=O)N[C@@H](CCCCNC(=N)N)C(=O)NC [AVR-235] ({Phenylacetyl(2,3,4,5,6-F5)-12Ado}-Y[dR]DAI[Phe(F5)]TA[hArg]Y(Me)RKVL[Abu]QLSARKLLQDI[Nle][dR][hArg]-NHMe) | higher inhibitory effects than MIA-602 |  |  | 
CCCC[C@H](NC(=O)[C@@H](NC(=O)[C@H](CC(=O)O)NC(=O)[C@H](CCC(N)=O)NC(=O)[C@H](CC(C)C)NC(=O)[C@H](CC(C)C)NC(=O)[C@H](CCCN)NC(=O)[C@H](Cc1c[nH]cn1)NC(=O)[C@H](C)NC(=O)[C@H](CO)NC(=O)[C@H](CC(C)C)NC(=O)[C@H](CCC(N)=O)NC(=O)[C@H](CC)NC(=O)[C@H](CC(C)C)NC(=O)[C@@H](NC(=O)[C@H](CCCN)NC(=O)[C@H](Cc1c[nH]cn1)NC(=O)[C@H](Cc1ccc(OC)cc1)NC(=O)[C@H](CCCCNC(=N)N)NC(=O)[C@H](C)NC(=O)[C@@H](NC(=O)[C@H](Cc1c(F)c(F)c(F)c(F)c1F)NC(=O)[C@@H](NC(=O)[C@H](C)NC(=O)[C@H](CC(=O)O)NC(=O)[C@@H](CCCNC(=N)N)NC(=O)[C@H](Cc1ccc(O)cc1)NC(=O)CCCCCCCCCCCNC(=O)Cc1ccccc1)[C@@H](C)CC)[C@@H](C)O)C(C)C)[C@@H](C)CC)C(=O)N[C@H](CCCNC(=N)N)C(=O)N[C@@H](CCCCNC(=N)N)C(N)=O [MIA-602, PhAC-Ada, Tyr D-Arg, Asp, Ala, Ile, 5FPhe, Thr, Ala, Har, Tyr(Me), His, Orn, Val, Leu, Abu, Gin, Leu, Ser, Ala, His, Orn, Leu, Leu, Gin, Asp, Ile, Nle, D-Arg, Har NH2, reference compound] ({PhAc-12Ado}-Y[dR]DAI[Phe(F5)]TA[hArg]Y(Me)H[Orn]VL[Abu]QLSAH[Orn]LLQDI[Nle][dR][hArg]-NH2) |  | 582.10 | 267.2 | significant downregulation of genes involved in collagen fibril organization, cell-matrix adhesion and elastic fiber assembly
